Laboratory results from patent US20110230476A1, “PI3 KINASE INHIBITORS AND USES THEREOF” (AVILA THERAPEUTICS, INC., priority 2009, published 2011).

Target: T1, PI3Kα (p110α/p85α) (Homo sapiens, UniProt P42336)
T1 construct: purchased BPS Bioscience (San Diego, Calif.) or Millipore (Billerica, Mass.)
Assay: HTRF assay, potency against active PI3Kα
Format: biochemical
Settings: HTRF; [ATP]=50 μM, [di-C8-PIP2]=10 μM; 30 min pre-incubation; read-out: PI3Kα Inhibition
Description: Homogeneous Time Resolved Fluorescence (HTRF) Assay Protocol for Potency Assessment Against the Active Forms of PI3Kα, PI3Kβ, and PI3Kγ
The mechanics of the assay platform are best described by the vendor (Millipore, Billerica, Mass.) on their website at the following URL: www.millipore.com/coa/tech1/74jt4z.
Briefly, Stop solution (Stop A, #33-007 and Stop B, #33-009; 3:1 ratio) and Detection Mix (from DMC, #33-015 with DMA, #33-011 and DMB, #33-013; 18:1:1 ratio) were prepared as recommended by the manufacturer about 2 hrs prior to use. […] Lipid kinase reactions were started with the addition of 5 μL of ATP solution, mixed for 15 sec on a rotary plate shaker and incubated for 30-60 minutes at 25° C. Next, reactions were stopped with a 5 μL addition of Stop solution immediately followed by a 5 μL volume of Detection Mix. […] At the conclusion of each assay, the HTRF ratio from fluorescence emission values for each well was calculated and % Inhibition determined from averaged controls wells (+/−PI3K enzyme). % Inhibition values for each compound were then plotted against inhibitor concentration to estimate IC50 from log [Inhibitor] vs Response, Variable Slope model in GraphPad Prism from GraphPad Software (San Diego, Calif.).

T1 sequence (P42336 whole entry): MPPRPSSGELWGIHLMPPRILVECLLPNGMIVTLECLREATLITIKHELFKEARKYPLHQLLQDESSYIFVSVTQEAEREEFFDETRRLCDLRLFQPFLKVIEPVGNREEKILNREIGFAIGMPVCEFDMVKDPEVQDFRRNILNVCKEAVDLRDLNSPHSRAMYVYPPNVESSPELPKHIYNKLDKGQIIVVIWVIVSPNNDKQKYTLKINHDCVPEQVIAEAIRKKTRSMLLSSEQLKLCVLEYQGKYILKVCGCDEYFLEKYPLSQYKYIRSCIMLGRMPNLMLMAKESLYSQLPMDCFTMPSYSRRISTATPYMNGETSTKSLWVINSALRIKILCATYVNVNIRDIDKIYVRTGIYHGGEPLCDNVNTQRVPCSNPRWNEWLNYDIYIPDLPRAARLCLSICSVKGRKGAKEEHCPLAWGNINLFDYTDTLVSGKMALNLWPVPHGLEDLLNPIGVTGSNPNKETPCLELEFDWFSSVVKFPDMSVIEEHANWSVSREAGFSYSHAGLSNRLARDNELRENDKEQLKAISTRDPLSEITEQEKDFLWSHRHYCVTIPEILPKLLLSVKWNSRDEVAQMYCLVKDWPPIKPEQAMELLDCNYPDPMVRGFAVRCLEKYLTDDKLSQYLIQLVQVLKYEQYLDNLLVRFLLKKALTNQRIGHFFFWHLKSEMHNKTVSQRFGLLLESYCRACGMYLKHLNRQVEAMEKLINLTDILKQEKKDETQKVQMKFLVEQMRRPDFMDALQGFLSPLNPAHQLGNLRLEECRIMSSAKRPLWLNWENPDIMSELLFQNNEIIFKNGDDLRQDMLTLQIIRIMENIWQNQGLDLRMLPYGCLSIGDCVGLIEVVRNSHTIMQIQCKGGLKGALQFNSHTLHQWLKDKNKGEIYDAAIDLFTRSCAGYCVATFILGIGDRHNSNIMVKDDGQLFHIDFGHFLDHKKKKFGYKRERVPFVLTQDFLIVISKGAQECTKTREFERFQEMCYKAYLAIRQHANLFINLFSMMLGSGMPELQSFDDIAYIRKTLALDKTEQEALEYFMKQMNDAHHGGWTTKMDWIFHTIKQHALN
T1 sequence (P27986 whole entry partner): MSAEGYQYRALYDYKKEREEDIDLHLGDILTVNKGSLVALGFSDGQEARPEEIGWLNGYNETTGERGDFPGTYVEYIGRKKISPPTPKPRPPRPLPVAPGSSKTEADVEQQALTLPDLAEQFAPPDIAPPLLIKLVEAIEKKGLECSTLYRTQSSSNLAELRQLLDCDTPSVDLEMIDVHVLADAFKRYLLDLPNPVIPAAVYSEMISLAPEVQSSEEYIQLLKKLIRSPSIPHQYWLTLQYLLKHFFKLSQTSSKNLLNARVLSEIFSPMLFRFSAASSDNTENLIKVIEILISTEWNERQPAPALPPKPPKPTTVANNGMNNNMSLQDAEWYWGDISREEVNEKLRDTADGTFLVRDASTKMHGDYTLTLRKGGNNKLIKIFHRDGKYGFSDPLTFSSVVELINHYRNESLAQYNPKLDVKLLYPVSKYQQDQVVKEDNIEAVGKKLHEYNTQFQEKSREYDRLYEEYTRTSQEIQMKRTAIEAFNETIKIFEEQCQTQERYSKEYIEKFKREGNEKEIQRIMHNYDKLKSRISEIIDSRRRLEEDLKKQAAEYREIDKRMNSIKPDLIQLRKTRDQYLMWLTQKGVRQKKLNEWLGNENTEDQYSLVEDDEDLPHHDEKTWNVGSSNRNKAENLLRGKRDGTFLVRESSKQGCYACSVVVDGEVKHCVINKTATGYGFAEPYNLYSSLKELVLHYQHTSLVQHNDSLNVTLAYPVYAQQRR

IC50 [nM]	SMILES
10 to 100	CC(C)OC/C=C/C(=O)CCC(=O)N1CCN(Cc2cc3nc(-c4cccc5[nH]ncc45)nc(N4CCOCC4)c3s2)CC1 [II-a-62, (E)-1-(4-((2-(1H-indazol-4-yl)-4-morpholinothieno[3,2-d]pyrimidin-6-yl)methyl)piperazin-1-yl)-7-isopropoxyhept-5-ene-1,4-dione]
10 to 100	CC(C)=CC(=O)C(=O)N1CCN(c2ccc(-c3cc(-c4cnc(N)nc4)nc(N4CCOCC4)c3)cn2)CC1 [XII-25, 1-(4-(2′-(2-aminopyrimidin-5-yl)-6′-morpholino-3,4′-bipyridin-6-yl)piperazin-1-yl)-4-methylpent-3-ene-1,2-dione]
> 1000	C=CC(=O)Nc1ccc(CNC(=O)c2cc(-c3cnc(N)nc3C)nc(N3CCOCC3)c2)cc1 [XII-17, N-(4-acrylamidobenzyl)-2-(2-amino-4-methylpyrimidin-5-yl)-6-morpholinoisonicotinamide]
100 to 1000	C=CC(=O)N[C@H]1CCC[C@@H](C(=O)N2CCN(Cc3cc4nc(-c5cccc6[nH]ncc56)nc(N5CCOCC5)c4s3)CC2)C1 [II-a-98]
< 10	CC(C)=CC(=O)CCCC(=O)N1CC=C(c2cc3nc(-c4cnc(N)nc4)nc(N4CCOCC4)c3s2)CC1 [II-a-166, 1-(4-(2-(2-aminopyrimidin-5-yl)-4-morpholinothieno[3,2-d]pyrimidin-6-yl)-5,6-dihydropyridin-1(2H)-yl)-7-methyloct-6-ene-1,5-dione]
100 to 1000	CC(C)=CC(=O)CCCC(=O)NCC#Cc1cc(-c2cnc(N)nc2)nc(N2CCOCC2)c1 [XII-20, N-(3-(2-(2-aminopyrimidin-5-yl)-6-morpholinopyridin-4-yl)prop-2-ynyl)-7-methyl-5-oxooct-6-enamide]
100 to 1000	C/C=C(\C)C(=O)CCC(=O)N1CCN(Cc2cc3nc(-c4cccc5[nH]ncc45)nc(N4CCOCC4)c3s2)CC1 [II-a-149, (E)-1-(4-((2-(1H-indazol-4-yl)-4-morpholinothieno[3,2-d]pyrimidin-6-yl)methyl)piperazin-1-yl)-5-methylhept-5-ene-1,4-dione]
100 to 1000	C=CC(=O)NCCCC(=O)N1CCN(Cc2cc3nc(-c4cccc5[nH]ncc45)nc(N4CCOCC4)c3s2)CC1 [II-a-20, N-(4-(4-((2-(1H-indazol-4-yl)-4-morpholinothieno[3,2-d]pyrimidin-6-yl)methyl)piperazin-1-yl)-4-oxobutyl)acrylamide]
10 to 100	C=CC(=O)N1CCC(O)(C#Cc2cc3nc(-c4cccc(O)c4)nc(N4CCOCC4)c3s2)CC1 [II-a-69, 1-(4-hydroxy-4-((2-(3-hydroxyphenyl)-4-morpholinothieno[3,2-d]pyrimidin-6-yl)ethynyl)piperidin-1-yl)prop-2-en-1-one]
100 to 1000	CC(C)=CC(=O)CCC(=O)N1CCN(Cc2cc3nc(-c4cnc(N)nc4)cc(N4CCOCC4)c3s2)CC1 [II-g-7, 1-(4-((5-(2-aminopyrimidin-5-yl)-7-morpholinothieno[3,2-b]pyridin-2-yl)methyl)piperazin-1-yl)-6-methylhept-5-ene-1,4-dione]
> 1000	C=CC(=O)Nc1ccc(CCNC(=O)c2cc(-c3cccc4[nH]ncc34)nc(N3CCOCC3)c2)cc1 [XII-13, N-(4-acrylamidophenethyl)-2-(1H-indazol-4-yl)-6-morpholinoisonicotinamide]
100 to 1000	C=CC(=O)NCC(=O)N1CCc2cc(-c3cc4nc(-c5cccc(O)c5)nc(N5CCOCC5)c4s3)ccc2C1 [II-a-121, N-(2-(6-(2-(3-hydroxyphenyl)-4-morpholinothieno[3,2-d]pyrimidin-6-yl)-3,4-dihydroisoquinolin-2(1H)-yl)-2-oxoethyl)acrylamide]
10 to 100	C/C=C/C(=O)CCC(=O)N1CCN(c2ccc(-c3ccnc4ccc(/C=C5\SC(=O)NC5=O)cc34)cc2)CC1 [V-15, (Z)-5-((4-(4-(4-((E)-4-oxohept-5-enoyl)piperazin-1-yl)phenyl)quinolin-6-yl)methylene)thiazolidine-2,4-dione]
100 to 1000	CC(C)(C)/C=C/C(=O)CCC(=O)N1CCN(Cc2cc3nc(-c4cccc5[nH]ncc45)nc(N4CCOCC4)c3s2)CC1 [II-a-131, (E)-1-(4-((2-(1H-indazol-4-yl)-4-morpholinothieno[3,2-d]pyrimidin-6-yl)methyl)piperazin-1-yl)-7,7-dimethyloct-5-ene-1,4-dione]
> 1000	C=CC(=O)Nc1ccc(C(=O)N2CC=C(c3cc4nc(-c5cnc(N)nc5)cc(C5=CCOCC5)c4s3)CC2)cc1 [II-g-5, N-(4-(4-(5-(2-aminopyrimidin-5-yl)-7-(3,6-dihydro-2H-pyran-4-yl)thieno[3,2-b]pyridin-2-yl)-1,2,3,6-tetrahydropyridine-1-carbonyl)phenyl)acrylamide]
100 to 1000	CC(C)=CC(=O)CCCC(=O)N1CCN(Cc2cc(-c3cnc(N)nc3)nc(N3CCOCC3)c2)CC1 [XII-23, 1-(4-((2-(2-aminopyrimidin-5-yl)-6-morpholinopyridin-4-yl)methyl)piperazin-1-yl)-7-methyloct-6-ene-1,5-dione]
< 10	CC(C)=CC(=O)C(=O)Nc1ccc(C#Cc2cc(-c3cnc(N)nc3)nc(N3CCOCC3)c2)cc1 [XII-22, N-(4-((2-(2-aminopyrimidin-5-yl)-6-morpholinopyridin-4-yl)ethynyl)phenyl)-4-methyl-2-oxopent-3-enamide]
100 to 1000	C=CC(=O)NCc1ccc(-c2cc3nc(-c4cccc5[nH]ncc45)nc(N4CCOCC4)c3s2)cc1 [II-a-107, N-(4-(2-(1H-indazol-4-yl)-4-morpholinothieno[3,2-d]pyrimidin-6-yl)benzyl)acrylamide]
> 1000	C/C=C/C(=O)CCC(=O)N1CCC(n2nc(-c3ccc(OC)c(OC)c3)c3c(N)ncnc32)CC1 [XI-1, (E)-1-(4-(4-amino-3-(3,4-dimethoxyphenyl)-1H-pyrazolo[3,4-d]pyrimidin-1-yl)piperidin-1-yl)hept-5-ene-1,4-dione]
< 10	CC(C)=CC(=O)CCC(=O)N1CCN(c2ccc(-c3ccnc4ccc(/C=C5\SC(=O)NC5=O)cc34)cn2)CC1 [V-18, (Z)-5-((4-(6-(4-(6-methyl-4-oxohept-5-enoyl)piperazin-1-yl)pyridin-3-yl)quinolin-6-yl)methylene)thiazolidine-2,4-dione]
> 1000	C=CC(=O)N(C)CC(=O)N1CCC(n2nc(-c3ccc(OC)c(OC)c3)c3c(N)ncnc32)CC1 [XI-2, N-(2-(4-(4-amino-3-(3,4-dimethoxyphenyl)-1H-pyrazolo[3,4-d]pyrimidin-1-yl)piperidin-1-yl)-2-oxoethyl)-N-methylacrylamide]
10 to 100	C/C=C/C(=O)CCC(=O)NCCOc1ccc2c(c1OC)N=C(NC(=O)c1cccnc1)N1CCN=C21 [IX-2, (E)-N-(7-methoxy-8-(2-(4-oxohept-5-enamido)ethoxy)-2,3-dihydroimidazo[1,2-c]quinazolin-5-yl)nicotinamide]
100 to 1000	CC(C)=CC(=O)CN1CCN(C2CCN(c3cc(-c4cnc(N)nc4)nc(N4CCOCC4)c3)CC2)CC1 [XII-34, 1-(4-(1-(2-(2-aminopyrimidin-5-yl)-6-morpholinopyridin-4-yl)piperidin-4-yl)piperazin-1-yl)-4-methylpent-3-en-2-one]
100 to 1000	O=C(/C=C/c1cnc[nH]1)NCC12CCC(c3cc4nc(-c5cccc6[nH]ncc56)nc(N5CCOCC5)c4s3)(CC1)OC2 [II-a-177, (E)-N-((1-(2-(1H-indazol-4-yl)-4-morpholinothieno[3,2-d]pyrimidin-6-yl)-2-oxabicyclo[2.2.2]octan-4-yl)methyl)-3-(1H-imidazol-5-yl)acrylamide]
10 to 100	C=CC(=O)N1CCC(O)(CCc2cc3nc(-c4cccc(O)c4)nc(N4CCOCC4)c3s2)CC1 [II-a-111, 1-(4-hydroxy-4-(2-(2-(3-hydroxyphenyl)-4-morpholinothieno[3,2-d]pyrimidin-6-yl)ethyl)piperidin-1-yl)prop-2-en-1-one]
100 to 1000	C=CC(=O)NCC(=O)N1CCC(O)(c2cc3nc(-c4cccc5[nH]ncc45)nc(N4CCOCC4)c3s2)CC1 [II-a-134, N-(2-(4-(2-(1H-indazol-4-yl)-4-morpholinothieno[3,2-d]pyrimidin-6-yl)-4-hydroxypiperidin-1-yl)-2-oxoethyl)acrylamide]
100 to 1000	COc1c(OCCNC(=O)CCCC(=O)/C=C/c2ccccc2)ccc2c1N=C(NC(=O)c1cccnc1)N1CCN=C21 [IX-4, (E)-N-(7-methoxy-8-(2-(5-oxo-7-phenylhept-6-enamido)ethoxy)-2,3-dihydroimidazo[1,2-c]quinazolin-5-yl)nicotinamide]
10 to 100	C/C=C/C(=O)CCCC(=O)N1CC=C(c2cc3nc(-c4cccc5[nH]ncc45)nc(N4CCOCC4)c3s2)CC1 [II-a-60, (E)-1-(4-(2-(1H-indazol-4-yl)-4-morpholinothieno[3,2-d]pyrimidin-6-yl)-5,6-dihydropyridin-1(2H)-yl)oct-6-ene-1,5-dione]
10 to 100	CC(C)=CC(=O)CCC(=O)N1CC=C(c2cc3nc(-c4cnc(N)nc4)nc(N4CCOCC4)c3s2)CC1 [II-a-165, 1-(4-(2-(2-aminopyrimidin-5-yl)-4-morpholinothieno[3,2-d]pyrimidin-6-yl)-5,6-dihydropyridin-1(2H)-yl)-6-methylhept-5-ene-1,4-dione]
100 to 1000	C=CC(=O)Nc1ccc(C(=O)N2CCN(c3cc(-c4cnc(N)nc4)nc(N4CCOCC4)c3)CC2)cc1 [XII-53, N-(4-(4-(2-(2-aminopyrimidin-5-yl)-6-morpholinopyridin-4-yl)piperazine-1-carbonyl)phenyl)acrylamide]
